Consider 10 compounds from paper PMC11582173, “Synthesis, cytotoxicity, anti-inflammatory, anti-metastatic and anti-oxidant activities of novel chalcones incorporating 2-phenoxy-N-arylacetamide and thiophene moieties: induction of apoptosis in MCF7 and HEP2 cells” (Naunyn-Schmiedeberg's Archives of Pharmacology, 2024).

One series relates to MCF7. Also noted: method as in Khairul et al. [2020]. The conditions noted are these: reported chalcone derivatives; ref Khairul et al. [2020]; cited from earlier work.
In series [1] the test system is human breast carcinoma (MCF7) cells. Description: SRB cytotoxic assay, MCF7. Format: cell-based. The conditions noted are these: MCF7, 48 h; for inhibition at 100 µg/mL: single dose 100 µg/mL, read-out: %Inhibition at100 µg/mL MCF7. The method, then:
(§1) All the prepared compounds were screened at a concentration of 100 µg/mL against six different human cell lines: human laryngeal carcinoma (HEP2), human colorectal carcinoma (HCT116), human breast carcinoma (MCF7), human Lung carcinoma (A549), human liver carcinoma (HEPG2), and normal African Green monkey kidney cell line (VERO). Doxorubicin was used as a positive control for comparison purposes.
(§2) The human laryngeal carcinoma (HEP2), colorectal carcinoma (HCT116), breast carcinoma (MCF7), Lung carcinoma (A549), liver carcinoma (HEPG2), and normal African Green monkey kidney cell line (VERO) were purchased from American Tissue Culture Collection (Rockville, MD, USA). The cells were treated for 48 h with a single dose (100 µg/mL) of all the tested chalcones. […] In brief, the cells were seeded in a 96-well microtiter plate at a concentration of 5×10^3 cells/well in 100 µL fresh RPMI-1640 medium and left to attach to the plates for 24 h. Then, cells were incubated with 100 μL of different concentrations (50, 25, 12.5, 6.25, and 0.0 µg/mL) of 5c in triplicate at 37 °C for 48 h. After that, the cells were fixed with 10 µL cold 100% Trichloroacetic acid (TCA) for 1h at 4 °C. The wells were then washed 1 time with distilled water using (automatic Tecan washer, Germany) and stained for 30 min at room temperature with 50 µL 0.4% SRB dissolved in 1% acetic acid. The plates were air-dried and the dye was solubilized with 100 µl/well of 1M tris base (pH 10.5) for 5 min. The optical density (O.D.) of each well was measured spectrophotometrically at 570 nm with an ELISA microplate reader (Sunrise Tecan reader, Germany) with automatic shaking for 30 seconds before reading. The mean background absorbance was subtracted automatically and mean values for each drug concentration were calculated. The percentage of cell survival was calculated as follows: Survival fraction= O.D. (treated cells)/ O.D. (control cells) (Bhat et al. [2023]).
In general terms: The SRB assay estimates cell density from bound dye.

For series [2], the system named is human laryngeal carcinoma (HEP2) cells. As to the kind of experiment: SRB cytotoxic assay, HEP2. The class given is cell-based. The settings on record: HEp-2, 48 h; for inhibition at 100 µg/mL: single dose 100 µg/mL, read-out: %Inhibition at100 µg/mL HEP2. The method, then: as §1, §2
Series [3] deals with human Lung carcinoma (A549) cells. Description: SRB cytotoxic assay, A549. Format: cell-based. The conditions noted are these: single dose 100 µg/mL, 48 h, read-out: %Inhibition at100 µg/mL A549. The protocol: as §1, §2
Series [4] relates to human liver carcinoma (HEPG2) cells. As to the kind of experiment: SRB cytotoxic assay, HEPG2. The class given is cell-based. The conditions noted are these: single dose 100 µg/mL, 48 h, read-out: %Inhibition at100 µg/mL HEPG2. The method, then: as §1, §2
In series [5] the test system is normal African Green monkey kidney cell line (VERO). As to the kind of experiment: SRB cytotoxic assay, VERO normal cells. Format: cell-based. The settings on record: Chlorocebus sabaeus, single dose 100 µg/mL, 48 h, read-out: %Inhibition at100 µg/mL VERO. The protocol:
as §1, §2

Series [6] has as its system human colorectal carcinoma (HCT116) cells. Description: SRB cytotoxic assay, HCT116. Format: cell-based. The conditions noted are these: HCT-116, single dose 100 µg/mL, 48 h, read-out: %Inhibition at100 µg/mL HCT116. The protocol:
as §1, §2

Converted amounts (≈) assume the structure as drawn.

Regarding `CCCCCCOc1ccc(/C=C/C(=O)c2ccc(C#N)cc2)cc1` [(E)-1-(4-cyanophenyl)-3-(4-(hexyloxy)phenyl) prop-2-en-1-one], in the series on MCF7, the “IC50 cytotoxic effect against MCF7” value is 13.75 µg/mL (≈ 41.2 µM).

In the case of `CCCCCCOc1ccc(/C=C/C(=O)c2ccc([N+](=O)[O-])cc2)cc1` [(E)-1-(4-nitrophenyl)-3-(4-(hexyloxy)phenyl) prop-2-en-1-one], in the series on MCF7, the “IC50 cytotoxic effect against MCF7” value was 14.75 µg/mL (≈ 41.7 µM).

In the case of `O=C(COc1ccc(C=CC(=O)c2cccs2)cc1)Nc1ccccc1` [Compound 5a, 2-(4-(3-Oxo-3-(thiophen-2-yl)prop-1-en-1-yl)phenoxy)-N-phenylacetamide], the melting point (in general, the temperature of the solid-liquid transition) is 194 to 196 °C. In series [1], the inhibition at 100 µg/mL was found to be 33.7 ± 1.5%. Also, the inhibition at 100 µg/mL in series [2] stood at 4.53 ± 0.08%. Besides, the inhibition at 100 µg/mL in series [3] is 22 ± 1.4%. Further, the inhibition at 100 µg/mL in series [4] was found to be 30 ± 1.2%. Also, the inhibition at 100 µg/mL in series [5] stood at 55 ± 3%. Besides, the inhibition at 100 µg/mL in series [6] came to 5.18 ± 1.6%.

The compound `Cc1ccc(NC(=O)COc2ccc(C=CC(=O)c3cccs3)cc2)cc1` [Compound 5b, 2-(4-(3-Oxo-3-(thiophen-2-yl)prop-1-en-1-yl)phenoxy)-N-(p-tolyl)acetamide] showed a melting point of 202 to 204 °C. Further, the inhibition at 100 µg/mL in series [1] was 0.52 ± 2.1%. In series [2], the inhibition at 100 µg/mL amounted to 7.2 ± 1.4%. Moreover, in series [3], the inhibition at 100 µg/mL is 10.2 ± 2%. For the same compound, the inhibition at 100 µg/mL in series [4] came out at 25 ± 1.9%. In series [5], the inhibition at 100 µg/mL was 60 ± 1%. Also, the inhibition at 100 µg/mL in series [6] stood at 5.92 ± 1.2%.

`O=C(COc1ccc(C=CC(=O)c2cccs2)cc1)Nc1ccc(Cl)cc1` [Compound 5d, N-(4-Chlorophenyl)-2-(4-(3-oxo-3-(thiophen-2-yl)prop-1-en-1-yl)phenoxy)acetamide] returned a melting point of 198 to 200 °C. In addition, the inhibition at 100 µg/mL in series [1] came to 40.09 ± 0.07%. For the same compound, the inhibition at 100 µg/mL in series [2] came to 0.36 ± 0.05%. The inhibition at 100 µg/mL in series [3] was found to be 44.1 ± 1.3%. In addition, in series [4], the inhibition at 100 µg/mL worked out at 45.2 ± 1.7%. Moreover, the inhibition at 100 µg/mL in series [5] came out at 80 ± 2%. Further, the inhibition at 100 µg/mL in series [6] was 0.85 ± 1.1%.

Regarding `O=C(COc1ccc(C(=O)C=Cc2cccs2)cc1)Nc1ccccc1` [Compound 9a, N-Phenyl-2-(4-(3-(thiophen-2-yl)acryloyl)phenoxy)acetamide], the figures for the IC50 in series [1] and in series [2] were 24.5 µg/mL (≈ 67.4 µM) and 15.5 µg/mL (≈ 42.6 µM), respectively. Moreover, the inhibition at 100 µg/mL was more than 75% in series [1]; more than 75% in series [2]; 52 ± 2.7% in series [3]; 64 ± 1.5% in series [4]; 58 ± 1.4% in series [5]; 44.7 ± 1% in series [6].

As to `Cc1ccc(NC(=O)COc2ccc(C(=O)C=Cc3cccs3)cc2)cc1` [Compound 9b, 2-(4-(3-(Thiophen-2-yl)acryloyl)phenoxy)-N-(p-tolyl)acetamide], the melting point fell in the range of 200 to 202 °C. In addition, in series [1], the inhibition at 100 µg/mL is 18.6 ± 0.05%. For the same compound, in series [2], the inhibition at 100 µg/mL was found to be 17.9 ± 1.3%. Further, the inhibition at 100 µg/mL in series [3] is 33 ± 3.1%. Moreover, the inhibition at 100 µg/mL in series [4] was determined as 26 ± 1.7%. In series [5], the inhibition at 100 µg/mL was 15 ± 2.4%. The inhibition at 100 µg/mL in series [6] amounted to 0.92 ± 1.7%.

Compound `COc1ccc(NC(=O)COc2ccc(C(=O)C=Cc3cccs3)cc2)cc1` [Compound 9c, N-(4-Methoxyphenyl)-2-(4-(3-(thiophen-2-yl)acryloyl)phenoxy)acetamide] registered a melting point of 205 to 207 °C. The inhibition at 100 µg/mL in series [1] was 1.81 ± 1.3%. Further, the inhibition at 100 µg/mL in series [2] came to 7.2 ± 1.7%. Further, in series [3], the inhibition at 100 µg/mL was less than 10%. For the same compound, the inhibition at 100 µg/mL in series [4] is less than 10%. For the same compound, in series [5], the inhibition at 100 µg/mL is less than 10%. Further, in series [6], the inhibition at 100 µg/mL turned out to be 16.3 ± 1.9%.

In turn, `O=C(COc1ccc(C(=O)C=Cc2cccs2)cc1)Nc1ccc(Cl)cc1` [Compound 9d, N-(4-Chlorophenyl)-2-(4-(3-(thiophen-2-yl)acryloyl)phenoxy)acetamide] registered a melting point of 193 to 195 °C. For the same compound, the inhibition at 100 µg/mL in series [1] was 2.28 ± 4.1%. Further, the inhibition at 100 µg/mL in series [2] was 17.9 ± 2.3%. In addition, the inhibition at 100 µg/mL in series [3] was less than 10%. In addition, the inhibition at 100 µg/mL in series [4] was less than 10%. Further, the inhibition at 100 µg/mL in series [5] was determined as 10 ± 1%. For the same compound, the inhibition at 100 µg/mL in series [6] amounted to 6.66 ± 3.3%.

In the case of `COc1cccc2c1C(=O)c1c(O)c3c(c(O)c1C2=O)C[C@@](O)(C(=O)CO)C[C@@H]3O[C@H]1C[C@H](N)[C@H](O)[C@H](C)O1` [Doxorubicin, reference compound], the IC50 (as a rule, the point on the concentration scale where inhibition reaches its midpoint) in series [1] came out at 5.5 µg/mL (≈ 10.1 µM); in series [2] it was 11 µg/mL (≈ 20.2 µM). Also, the inhibition at 100 µg/mL in series [1] came out at 86.6 ± 1.6%; in series [2], 83.2 ± 1.1%; in series [3], 77 ± 1.5%; in series [4], 81 ± 2%; in series [5], 45 ± 2%; in series [6] it was 71.5 ± 0.9%.
